Assay results published in ChEMBL document CHEMBL1201862, “PubChem BioAssay data set” (2004).
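Following 48 hours of exposure in 96-well plates, responses at five concentrations were used to interpolate endpoints linearly. GI50 = concentration required for 50% inhibition of growth.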 The source made the active and inactive calls. Rule as the data show it: active = GI50 up to about 1.1 µM and inactive = higher.

Key:
Experiment in all cases: inhibition of tumour cell growth, NCI panel, 48 h
COLO 205 = test system: COLO 205
HOP-62 = test system: HOP-62
SF-539 = test system: SF-539
MDA-N = test system: MDA-N
NCI-H23 = test system: NCI-H23
EKVX = test system: EKVX
SK-MEL-28 = test system: SK-MEL-28
BT-549 = test system: BT-549
HOP-92 = test system: HOP-92
MOLT-4 = test system: MOLT-4
SR = test system: SR
NCI-H226 = test system: NCI-H226
SW-620 = test system: SW-620
UO-31 = test system: UO-31
MCF7 = test system: MCF7
Malme-3M = test system: Malme-3M
HT-29 = test system: HT-29
Hs-578T = test system: Hs-578T

| Compound | GI50 (COLO 205) | GI50 (HOP-62) | GI50 (SF-539) | GI50 (MDA-N) | GI50 (NCI-H23) | GI50 (EKVX) | GI50 (SK-MEL-28) | GI50 (BT-549) | GI50 (HOP-92) | GI50 (MOLT-4) | GI50 (SR) | GI50 (NCI-H226) | GI50 (SW-620) | GI50 (UO-31) | GI50 (MCF7) | GI50 (Malme-3M) | GI50 (HT-29) | GI50 (Hs-578T) |
| --- | --- | --- | --- | --- | --- | --- | --- | --- | --- | --- | --- | --- | --- | --- | --- | --- | --- | --- |
| Cc1c(Cl)ccc2c(=O)c3cccc(CC(=O)O)c3oc12 | > 100 µM (inactive) | > 100 µM (inactive) | > 100 µM (inactive) | > 100 µM (inactive) | > 100 µM (inactive) | > 100 µM (inactive) | > 100 µM (inactive) | 38.5 µM (inactive) | > 100 µM (inactive) | > 100 µM (inactive) | > 100 µM (inactive) | > 100 µM (inactive) | > 100 µM (inactive) | > 100 µM (inactive) | 35.6 µM (inactive) | > 100 µM (inactive) | > 100 µM (inactive) | > 100 µM (inactive) |
| COC(=O)CC1C=CC(C)(OC)OO1 (centres undefined) | 55.7 µM (inactive) | > 100 µM (inactive) | > 100 µM (inactive) | > 100 µM (inactive) | > 100 µM (inactive) | > 100 µM (inactive) | > 100 µM (inactive) | > 100 µM (inactive) | > 100 µM (inactive) | > 10 µM (inactive) | 58.5 µM (inactive) | > 100 µM (inactive) | 27.2 µM (inactive) | > 100 µM (inactive) | 53.1 µM (inactive) | 78.7 µM (inactive) | > 100 µM (inactive) | > 100 µM (inactive) |
| C1=C\CCCCN2C[C@H]3CCCC/C=C\CCCCN4CC[C@@H]([C@H](CCCCCC/1)C4)[C@H](C3)C2 | 2.07 µM (inactive) | 2.23 µM (inactive) | 1.87 µM (inactive) | 1.75 µM (inactive) | 6.24 µM (inactive) | 7.11 µM (inactive) | 1.93 µM (inactive) | 6.79 µM (inactive) | 2.38 µM (inactive) | 1.49 µM (inactive) | 2.4 µM (inactive) | 17.6 µM (inactive) | 2.44 µM (inactive) | 1.66 µM (inactive) | 1.93 µM (inactive) | 1.85 µM (inactive) | 2.07 µM (inactive) | 2.05 µM (inactive) |
| O=C(/C=C/c1ccc2c(c1)OCO2)NCc1ccco1 | > 100 µM (inactive) | > 100 µM (inactive) | 64.9 µM (inactive) | > 100 µM (inactive) | > 100 µM (inactive) | 71.6 µM (inactive) | > 100 µM (inactive) | 25.9 µM (inactive) | 92.5 µM (inactive) | > 100 µM (inactive) | 5.09 µM (inactive) | > 100 µM (inactive) | > 100 µM (inactive) | 67.1 µM (inactive) | 39.7 µM (inactive) | > 100 µM (inactive) | > 100 µM (inactive) | > 100 µM (inactive) |
| O=C1c2ccccc2C(=O)N1c1nc(-c2ccc(Cl)cc2)cc(N2N=C(c3ccc(Br)cc3)CC2c2ccccc2)n1 (centres undefined) | 1.9 µM (inactive) | 2.92 µM (inactive) | 2.16 µM (inactive) | 1.03 µM (active) | 5.37 µM (inactive) | 0.792 µM (active) | 7.73 µM (inactive) | 3.21 µM (inactive) | 11.4 µM (inactive) | 2.51 µM (inactive) | 0.65 µM (active) | 5.38 µM (inactive) | 2.53 µM (inactive) | 4.81 µM (inactive) | 1.3 µM (inactive) | > 44.7 µM (inactive) | 2.94 µM (inactive) | 3.74 µM (inactive) |
| COc1ccc(N2C(=O)CC(=O)N(NC(=O)C(C)Oc3ccccc3C)C2=S)cc1 (centres undefined) | > 100 µM (inactive) | > 100 µM (inactive) | > 100 µM (inactive) | > 100 µM (inactive) | > 100 µM (inactive) | > 100 µM (inactive) | > 100 µM (inactive) | > 100 µM (inactive) | > 100 µM (inactive) | > 100 µM (inactive) | > 100 µM (inactive) | > 100 µM (inactive) | > 100 µM (inactive) | > 100 µM (inactive) | > 100 µM (inactive) | > 100 µM (inactive) | > 100 µM (inactive) | > 100 µM (inactive) |
| FC(F)(F)C1(c2ccccc2)SCc2nc3ccccc3n21 (centres undefined) | > 100 µM (inactive) | > 100 µM (inactive) | > 100 µM (inactive) | 38.3 µM (inactive) | 71.9 µM (inactive) | > 100 µM (inactive) | > 100 µM (inactive) | > 100 µM (inactive) | 47.2 µM (inactive) | 61.7 µM (inactive) | 35.2 µM (inactive) | > 100 µM (inactive) | > 100 µM (inactive) | 55.5 µM (inactive) | > 100 µM (inactive) | > 100 µM (inactive) | 62.5 µM (inactive) | > 100 µM (inactive) |
| CCN(CC)CCn1c(=O)c2ccccc2n2c3c(=O)n(C)c(=O)n(C)c3nc12 | 1.55 µM (inactive) | 0.718 µM (active) | 0.968 µM (active) | 4.85 µM (inactive) | 2.07 µM (inactive) | 3.59 µM (inactive) | 5.15 µM (inactive) | 1.19 µM (inactive) | 1.47 µM (inactive) | 0.239 µM (active) | 0.177 µM (active) | 1.16 µM (inactive) | 1.22 µM (inactive) | 2.11 µM (inactive) | 0.337 µM (active) | 2.07 µM (inactive) | 2.2 µM (inactive) | 2.01 µM (inactive) |
